For test [1], the target named is T1, GCN2 (Homo sapiens, UniProt Q9P2K8). In words: TR-FRET biochemical assay for inhibition of GCN2 (Example 108, for Examples 73-105). On the technique in general: Time-resolved FRET reads energy transfer from a long-lived donor to a nearby acceptor.
The target in test [2] is T1, GCN2. The experiment in a line: TR-FRET assay for inhibition of GCN2 (Example 107, for Examples 40-72).

The source of these data is patent publication US20220388964A1 (HiberCell, Inc., priority 2019, published 2022).

Each structure is given as a SMILES string. pIC50: −log10 of the molar value. Some results are limits rather than exact numbers.

T1 sequence (Q9P2K8 whole entry): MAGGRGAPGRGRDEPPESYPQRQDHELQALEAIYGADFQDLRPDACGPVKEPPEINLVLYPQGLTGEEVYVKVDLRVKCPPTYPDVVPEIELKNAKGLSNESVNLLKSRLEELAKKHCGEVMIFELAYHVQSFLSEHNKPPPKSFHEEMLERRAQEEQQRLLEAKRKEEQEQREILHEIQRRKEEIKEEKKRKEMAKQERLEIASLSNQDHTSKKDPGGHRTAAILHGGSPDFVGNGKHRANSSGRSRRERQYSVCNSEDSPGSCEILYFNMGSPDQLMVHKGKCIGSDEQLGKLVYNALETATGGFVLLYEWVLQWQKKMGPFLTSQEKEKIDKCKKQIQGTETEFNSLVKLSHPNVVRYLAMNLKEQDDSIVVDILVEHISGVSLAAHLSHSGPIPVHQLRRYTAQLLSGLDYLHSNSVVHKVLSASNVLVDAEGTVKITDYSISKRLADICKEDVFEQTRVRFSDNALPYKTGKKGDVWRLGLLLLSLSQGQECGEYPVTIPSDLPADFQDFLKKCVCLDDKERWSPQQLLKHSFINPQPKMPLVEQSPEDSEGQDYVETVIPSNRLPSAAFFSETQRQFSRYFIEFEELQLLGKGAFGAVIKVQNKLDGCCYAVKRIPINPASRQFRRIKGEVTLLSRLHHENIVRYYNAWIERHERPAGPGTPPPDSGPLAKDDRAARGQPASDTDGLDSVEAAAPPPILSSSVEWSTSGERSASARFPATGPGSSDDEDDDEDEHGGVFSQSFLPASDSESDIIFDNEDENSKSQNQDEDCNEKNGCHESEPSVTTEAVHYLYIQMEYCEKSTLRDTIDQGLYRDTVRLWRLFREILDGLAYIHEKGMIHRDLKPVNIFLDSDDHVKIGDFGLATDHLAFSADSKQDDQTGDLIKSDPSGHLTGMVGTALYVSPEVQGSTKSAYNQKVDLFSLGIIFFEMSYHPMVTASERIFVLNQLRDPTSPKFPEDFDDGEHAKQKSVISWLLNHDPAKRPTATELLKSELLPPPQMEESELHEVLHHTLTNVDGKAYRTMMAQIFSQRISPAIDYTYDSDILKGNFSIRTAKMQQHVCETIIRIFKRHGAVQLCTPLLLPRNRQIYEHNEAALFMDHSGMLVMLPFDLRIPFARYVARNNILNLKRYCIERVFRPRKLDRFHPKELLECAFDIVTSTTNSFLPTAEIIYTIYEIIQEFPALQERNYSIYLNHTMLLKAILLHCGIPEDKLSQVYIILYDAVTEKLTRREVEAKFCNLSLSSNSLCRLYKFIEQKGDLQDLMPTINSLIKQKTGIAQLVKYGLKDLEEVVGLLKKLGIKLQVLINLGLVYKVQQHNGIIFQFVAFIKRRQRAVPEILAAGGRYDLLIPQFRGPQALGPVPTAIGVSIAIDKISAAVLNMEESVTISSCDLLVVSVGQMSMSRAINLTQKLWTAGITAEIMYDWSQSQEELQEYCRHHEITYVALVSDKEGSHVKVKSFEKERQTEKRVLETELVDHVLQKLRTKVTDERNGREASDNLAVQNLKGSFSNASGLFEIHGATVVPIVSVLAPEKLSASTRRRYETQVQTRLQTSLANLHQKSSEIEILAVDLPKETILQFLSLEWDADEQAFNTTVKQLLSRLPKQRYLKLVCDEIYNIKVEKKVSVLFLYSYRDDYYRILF

The compound `COc1ncc(Cl)cc1S(=O)(=O)Nc1ccc(F)c(-c2ccc3c(C(=O)NCCN4CCCC4)n[nH]c3c2F)c1F` [Example 83, 6-[3-(5-chloro-2-methoxypyridine-3-sulfonamido)-2,6-difluorophenyl]-7-fluoro-N-[2-(pyrrolidin-1-yl)ethyl]-1H-indazole-3-carboxamide] had a pIC50 in test [1] of more than 6.30. On to `CNC(=O)c1n[nH]c2c(F)c(-c3c(F)ccc(NS(=O)(=O)C4CCOCC4)c3F)ccc12` [Example 75, 6-[2,6-difluoro-3-(oxane-4-sulfonamido)phenyl]-7-fluoro-N-methyl-1H-indazole-3-carboxamide], for which the pIC50 in test [1] is 5.00 to 5.60. On to `COc1ncc(Cl)cc1S(=O)(=O)Nc1ccc(F)c(-c2ccc3c(C(=O)NC(C)CN)n[nH]c3c2F)c1F` (centres unmarked) [Example 95, N-(1-Aminopropan-2-yl)-6-[3-(5-chloro-2-methoxypyridine-3-sulfonamido)-2,6-difluorophenyl]-7-fluoro-1H-indazole-3-carboxamide], for which the pIC50 in test [1] was more than 6.30. `CNC(=O)c1n[nH]c2c(F)c(-c3c(F)ccc(NS(=O)(=O)CC4CCC(O)C4)c3F)ccc12` (mixture of isomers) [Example 78, 6-[2,6-difluoro-3-[(3-hydroxycyclopentyl)methanesulfonamido]phenyl]-7-fluoro-N-methyl-1H-indazole-3-carboxamide] showed a pIC50 in test [1] of 5.00 to 5.60. Still for that read-out and setting: in the case of `COc1ncc(Cl)cc1S(=O)(=O)Nc1ccc(F)c(-c2ccc3c(C(=O)NC4CCCC(O)C4)n[nH]c3c2F)c1F` (centres unmarked) [Example 80, 6-[3-(5-Chloro-2-methoxypyridine-3-sulfonamido)-2,6-difluorophenyl]-7-fluoro-N-(3-hydroxycyclohexyl)-1H-indazole-3-carboxamide] it was more than 6.30. Regarding `COc1ncc(Cl)cc1S(=O)(=O)Nc1ccc(F)c(-c2ccc3c(C(=O)NC(C#N)C4CC4)n[nH]c3c2F)c1F` (centres unmarked) [Example 91, 6-[3-(5-Chloro-2-methoxypyridine-3-sulfonamido)-2,6-difluorophenyl]-N-[cyano(cyclopropyl)methyl]-7-fluoro-1H-indazole-3-carboxamide], the pIC50 in test [1] was more than 6.30. `COc1ncc(Cl)cc1S(=O)(=O)Nc1ccc(F)c(-c2ccc3c(C(=O)NC4CCCC(N)C4)n[nH]c3c2F)c1F` (centres unmarked) [Example 98, N-(3-Aminocyclohexyl)-6-[3-(5-chloro-2-methoxypyridine-3-sulfonamido)-2,6-difluorophenyl]-7-fluoro-1H-indazole-3-carboxamide] showed a pIC50 in test [1] of more than 6.30. In the case of `COc1ncc(Cl)cc1S(=O)(=O)Nc1ccc(F)c(-c2ccc3c(C(=O)NC4CCC(O)C4)n[nH]c3c2F)c1F` (centres unmarked) [Example 97, 6-[3-(5-Chloro-2-methoxypyridine-3-sulfonamido)-2,6-difluorophenyl]-7-fluoro-N-(3-hydroxycyclopentyl)-1H-indazole-3-carboxamide], the pIC50 in test [1] is more than 6.30. In the case of `COc1ncc(Cl)cc1S(=O)(=O)Nc1ccc(F)c(-c2ccc3c(C(=O)NC4CCCCC4N)n[nH]c3c2F)c1F` (centres unmarked) [Example 94, N-(2-Aminocyclohexyl)-6-[3-(5-chloro-2-methoxypyridine-3-sulfonamido)-2,6-difluorophenyl]-7-fluoro-1H-indazole-3-carboxamide], the pIC50 in test [1] was 5.60 to 6.30. Regarding `COc1ncc(Cl)cc1S(=O)(=O)Nc1ccc(F)c(-c2ccc3c(C(=O)NCC4CCN(C)C4)n[nH]c3c2F)c1F` (centres unmarked) [Example 100, 6-[3-(5-Chloro-2-methoxypyridine-3-sulfonamido)-2,6-difluorophenyl]-7-fluoro-N-[(1-methylpyrrolidin-3-yl)methyl]-1H-indazole-3-carboxamide], in test [1], the pIC50 is more than 6.30. With `COc1ncc(Cl)cc1S(=O)(=O)Nc1ccc(F)c(-c2ccc3c(C(=O)NCC4CC4)n[nH]c3c2F)c1F` [Example 85, 6-[3-(5-Chloro-2-methoxypyridine-3-sulfonamido)-2,6-difluorophenyl]-N-(cyclopropylmethyl)-7-fluoro-1H-indazole-3-carboxamide], in test [1], the pIC50 is more than 6.30. In test [1], `COc1ncc(Cl)cc1S(=O)(=O)Nc1ccc(F)c(-c2ccc3c(C(=O)NCC4CCCNC4)n[nH]c3c2F)c1F` (centres unmarked) [Example 93, 6-[3-(5-Chloro-2-methoxypyridine-3-sulfonamido)-2,6-difluorophenyl]-7-fluoro-N-(piperidin-3-ylmethyl)-1H-indazole-3-carboxamide] gave a pIC50 of more than 6.30. In the case of `COc1ncc(Cl)cc1S(=O)(=O)Nc1ccc(F)c(-c2ccc3c(C(=O)NC4CCCC4)n[nH]c3c2F)c1F` [Example 79, 6-[3-(5-Chloro-2-methoxypyridine-3-sulfonamido)-2,6-difluorophenyl]-N-cyclopentyl-7-fluoro-1H-indazole-3-carboxamide], the pIC50 in test [1] is more than 6.30. Compound `COc1ncc(Cl)cc1S(=O)(=O)Nc1ccc(F)c(-c2ccc3c(C(=O)NCCN4CCOCC4)n[nH]c3c2F)c1F` [Example 86, 6-[3-(5-Chloro-2-methoxypyridine-3-sulfonamido)-2,6-difluorophenyl]-7-fluoro-N-[2-(morpholin-4-yl)ethyl]-1H-indazole-3-carboxamide] gave a pIC50 in test [1] of more than 6.30.

`COc1ncc(Cl)cc1S(=O)(=O)Nc1ccc(F)c(-c2ccc3c(C(=O)NC4CCC(=O)CC4)n[nH]c3c2F)c1F` [Example 96, 6-[3-(5-Chloro-2-methoxypyridine-3-sulfonamido)-2,6-difluorophenyl]-7-fluoro-N-(4-oxocyclohexyl)-1H-indazole-3-carboxamide] gave a pIC50 in test [1] of more than 6.30.

Regarding `C#CCNC(=O)c1n[nH]c2c(F)c(-c3c(F)ccc(NS(=O)(=O)c4cc(Cl)cnc4OC)c3F)ccc12` [Example 92, 6-[3-(5-Chloro-2-methoxypyridine-3-sulfonamido)-2,6-difluorophenyl]-7-fluoro-N-(prop-2-yn-1-yl)-1H-indazole-3-carboxamide], the pIC50 in test [1] is more than 6.30. For the compound `CNC(=O)c1n[nH]c2c(F)c(-c3c(F)ccc(NS(=O)(=O)c4cc(F)cc5c4CCC5O)c3F)ccc12` (centres unmarked) [Example 76, 6-[2,6-Difluoro-3-(6-fluoro-1-hydroxy-2,3-dihydro-1H-indene-4-sulfonamido)phenyl]-7-fluoro-N-methyl-1H-indazole-3-carboxamide], in test [1], the pIC50 is more than 6.30. Turning to `COc1ncc(Cl)cc1S(=O)(=O)Nc1ccc(F)c(-c2ccc3c(C(=O)NC4CCCCC4O)n[nH]c3c2F)c1F` (centres unmarked) [Example 88, 6-[3-(5-Chloro-2-methoxypyridine-3-sulfonamido)-2,6-difluorophenyl]-7-fluoro-N-(2-hydroxycyclohexyl)-1H-indazole-3-carboxamide], in test [1], the pIC50 is more than 6.30. On to `COc1ncc(Cl)cc1S(=O)(=O)Nc1ccc(F)c(-c2ccc3c(C(=O)NC4CC4)n[nH]c3c2F)c1F` [Example 81, 6-[3-(5-Chloro-2-methoxypyridine-3-sulfonamido)-2,6-difluorophenyl]-N-cyclopropyl-7-fluoro-1H-indazole-3-carboxamide], for which, in test [1], the negative-log IC50 (pIC50) was more than 6.30.

`CNC(=O)c1n[nH]c2c(F)c(-c3c(F)ccc(NS(=O)(=O)CC4CCCC4)c3F)ccc12` [Example 74, 6-[3-(cyclopentylmethanesulfonamido)-2,6-difluorophenyl]-7-fluoro-N-methyl-1H-indazole-3-carboxamide]: in test [1], the negative-log IC50 (pIC50) is 5.00 to 5.60. With `COc1ncc(Cl)cc1S(=O)(=O)Nc1ccc(F)c(-c2ccc3c(C(=O)NCCS(C)(=O)=O)n[nH]c3c2F)c1F` [Example 84, 6-[3-(5-Chloro-2-methoxypyridine-3-sulfonamido)-2,6-difluorophenyl]-7-fluoro-N-(2-methanesulfonylethyl)-1H-indazole-3-carboxamide], in test [1], the negative logarithm of the IC50 (pIC50) was more than 6.30. The compound `CNC(=O)c1n[nH]c2c(F)c(-c3c(F)ccc(NS(=O)(=O)c4ccc5ccoc5c4)c3F)ccc12` [Example 68] showed a pIC50 in test [2] of 5.60 to 6.30.

In test [2], `CNC(=O)c1n[nH]c2c(F)c(-c3c(F)ccc(NS(=O)(=O)c4cc(Cl)cnc4OC)c3F)cc(C)c12` [Example 47, 6-[3-(5-chloro-2-methoxypyridine-3-sulfonamido)-2,6-difluorophenyl]-7-fluoro-N,4-dimethyl-1H-indazole-3-carboxamide] had a pIC50 of more than 6.30. With `CCC(C)NC(=O)c1n[nH]c2c(F)c(-c3c(F)ccc(NS(=O)(=O)c4cc(Cl)cnc4OC)c3F)ccc12` (centres unmarked) [Example 56, 6-[3-(5-Chloro-2-methoxypyridine-3-sulfonamido)-2,6-difluorophenyl]-7-fluoro-N-(sec-butyl)-1H-indazole-3-carboxamide], the negative-log IC50 (pIC50) in test [2] is more than 6.30. Still for that read-out and setting: with `CNC(=O)c1n[nH]c2c(F)c(-c3c(F)ccc(NS(=O)(=O)c4cccc(CO)c4)c3F)ccc12` [Example 41, 6-[2,6-Difluoro-3-[3-(hydroxymethyl)benzenesulfonamido]phenyl]-7-fluoro-N-methyl-1H-indazole-3-carboxamide] the figure was 5.60 to 6.30; with `CNC(=O)c1n[nH]c2c(F)c(-c3c(F)ccc(NS(=O)(=O)c4cc(C#N)cnc4OC)c3F)ncc12` [Example 71, 6-[3-(5-Cyano-2-methoxypyridine-3-sulfonamido)-2,6-difluorophenyl]-7-fluoro-N-methyl-1H-pyrazolo[4,3-c]pyridine-3-carboxamide], more than 6.30. `CNC(=O)c1n[nH]c2c(F)c(-c3c(F)ccc(NS(=O)(=O)c4cc(Cl)cnc4OC)c3F)ncc12` [Example 67, 6-[3-(5-Chloro-2-methoxypyridine-3-sulfonamido)-2,6-difluorophenyl]-7-fluoro-N-methyl-1H-pyrazolo[4,3-c]pyridine-3-carboxamide]: in test [2], the pIC50 is more than 6.30. Compound `CNC(=O)c1n[nH]c2c(F)c(-c3c(F)ccc(NS(=O)(=O)c4cc(Cl)cnc4OC(F)F)c3F)ccc12` [Example 45, 6-[3-[5-chloro-2-(difluoromethoxy)pyridine-3-sulfonamido]-2,6-difluorophenyl]-7-fluoro-N-methyl-1H-indazole-3-carboxamide] showed a pIC50 in test [2] of more than 6.30. In test [2], `CNC(=O)c1n[nH]c2c(F)c(-c3c(F)ccc(NS(=O)(=O)c4cccc5c4ncn5C)c3F)ccc12` [Example 69, 6-[2,6-Difluoro-3-(1-methyl-1,3-benzodiazole-4-sulfonamido)phenyl]-7-fluoro-N-methyl-1H-indazole-3-carboxamide] showed a pIC50 of 5.60 to 6.30.

As usually defined, the pIC50 is the negative decadic logarithm of the IC50, by convention in mol/L.
